The values below come from the supplement of paper PMC10307832.

Common to all, as to assay: relative viability (nuclei count vs DMSO), 5 days (fraction); higher = more cells survive
Compound in the assay “AZD8055 + Palbociclib”: COc1ccc(-c2ccc3c(N4CCOC[C@@H]4C)nc(N4CCOC[C@@H]4C)nc3n2)cc1CO [AZD8055] + CC(=O)c1c(C)c2cnc(Nc3ccc(N4CCNCC4)cn3)nc2n(C2CCCC2)c1=O [Palbociclib] (partner 0.5 µM)
The method in brief: (§1)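 Lung cancer cell lines, seeded in 1536-well plates, were treated the following day by pin tool with a single drug or with five library-drug doses (not always all listed) in √10 steps on top of a fixed anchor-drug dose. Cells were fixed and nuclei stained in one step after 5 days, and nuclei were counted. Relative viability is the nuclei count for treated wells divided by that for vehicle wells, reported as medians of duplicate plates.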

Compound in the assay “AZD8055 + Bortezomib”: COc1ccc(-c2ccc3c(N4CCOC[C@@H]4C)nc(N4CCOC[C@@H]4C)nc3n2)cc1CO [AZD8055] + CC(C)C[C@H](NC(=O)[C@H](Cc1ccccc1)NC(=O)c1cnccn1)B(O)O [Bortezomib] (partner 0.002 µM)
In short, it runs like this:
as §1

Compound in the assay “AZD8055 + Dasatinib”: COc1ccc(-c2ccc3c(N4CCOC[C@@H]4C)nc(N4CCOC[C@@H]4C)nc3n2)cc1CO [AZD8055] + Cc1nc(Nc2ncc(C(=O)Nc3c(C)cccc3Cl)s2)cc(N2CCN(CCO)CC2)n1 [Dasatinib] (partner 0.075 µM)
In short, it runs like this:
as §1

Compound in the assay “AZD8055 + Alpelisib”: COc1ccc(-c2ccc3c(N4CCOC[C@@H]4C)nc(N4CCOC[C@@H]4C)nc3n2)cc1CO [AZD8055] + Cc1nc(NC(=O)N2CCC[C@H]2C(N)=O)sc1-c1ccnc(C(C)(C)C(F)(F)F)c1 [Alpelisib] (partner 2 µM)
In short, it runs like this:
as §1

As to EPLC-272H, the relative viability with AZD8055 + Palbociclib (first compound 0.01 µM) stood at 0.319; with AZD8055 + Palbociclib (first compound 0.03162 µM), 0.303; in the assay with AZD8055 + Palbociclib (first compound 0.1 µM) it was 0.309; in the assay with AZD8055 + Palbociclib (first compound 0.3162 µM), 0.27; with AZD8055 + Palbociclib (first compound 1 µM) it was 0.219; with AZD8055 + Bortezomib (first compound 0.01 µM) it was 0.74. The relative viability was determined as 0.62 with AZD8055 + Bortezomib (first compound 0.03162 µM); 0.754 with AZD8055 + Bortezomib (first compound 0.1 µM); 0.522 in the assay with AZD8055 + Bortezomib (first compound 0.3162 µM); 0.691 with AZD8055 + Bortezomib (first compound 1 µM); 0.333 with AZD8055 + Dasatinib (first compound 0.01 µM); 0.221 with AZD8055 + Dasatinib (first compound 0.03162 µM). Further, the relative viability with AZD8055 + Dasatinib (first compound 0.1 µM) stood at 0.173; with AZD8055 + Dasatinib (first compound 0.3162 µM), 0.109; with AZD8055 + Dasatinib (first compound 1 µM) it was 0.128; with AZD8055 + Alpelisib (first compound 0.01 µM), 0.927; in the assay with AZD8055 + Alpelisib (first compound 0.03162 µM), 0.754; with AZD8055 + Alpelisib (first compound 0.1 µM), 0.546. Also, the relative viability with AZD8055 + Alpelisib (first compound 0.3162 µM) was 0.445; in the assay with AZD8055 + Alpelisib (first compound 1 µM), 0.404.

As to NCI-H2023, the relative viability is 0.264 in the assay with AZD8055 + Palbociclib (first compound 0.01 µM); 0.229 with AZD8055 + Palbociclib (first compound 0.03162 µM); 0.0912 in the assay with AZD8055 + Palbociclib (first compound 0.1 µM); 0.086 in the assay with AZD8055 + Palbociclib (first compound 0.3162 µM); 0.113 in the assay with AZD8055 + Palbociclib (first compound 1 µM); 0.837 with AZD8055 + Bortezomib (first compound 0.01 µM). Also, the relative viability was determined as 0.664 in the assay with AZD8055 + Bortezomib (first compound 0.03162 µM); 0.356 with AZD8055 + Bortezomib (first compound 0.1 µM); 0.136 with AZD8055 + Bortezomib (first compound 0.3162 µM); 0.137 in the assay with AZD8055 + Bortezomib (first compound 1 µM); 0.568 in the assay with AZD8055 + Dasatinib (first compound 0.01 µM); 0.358 in the assay with AZD8055 + Dasatinib (first compound 0.03162 µM). Further, the relative viability in the assay with AZD8055 + Dasatinib (first compound 0.1 µM) was 0.166; with AZD8055 + Dasatinib (first compound 0.3162 µM), 0.0954; with AZD8055 + Dasatinib (first compound 1 µM), 0.103; with AZD8055 + Alpelisib (first compound 0.01 µM), 0.439; in the assay with AZD8055 + Alpelisib (first compound 0.03162 µM), 0.431; with AZD8055 + Alpelisib (first compound 0.1 µM), 0.311. Further, the relative viability with AZD8055 + Alpelisib (first compound 0.3162 µM) and with AZD8055 + Alpelisib (first compound 1 µM) was 0.141 in each case.

With BEN, the relative viability in the assay with AZD8055 + Palbociclib (first compound 0.01 µM) turned out to be 0.485; with AZD8055 + Palbociclib (first compound 0.03162 µM), 0.472; with AZD8055 + Palbociclib (first compound 0.1 µM) it was 0.436; with AZD8055 + Palbociclib (first compound 0.3162 µM) it was 0.475; with AZD8055 + Palbociclib (first compound 1 µM), 0.413; with AZD8055 + Bortezomib (first compound 0.01 µM), 0.663. The relative viability with AZD8055 + Bortezomib (first compound 0.03162 µM) is 0.472; with AZD8055 + Bortezomib (first compound 0.1 µM), 0.428; in the assay with AZD8055 + Bortezomib (first compound 0.3162 µM), 0.365; with AZD8055 + Bortezomib (first compound 1 µM), 0.262; with AZD8055 + Dasatinib (first compound 0.01 µM) it was 0.273; with AZD8055 + Dasatinib (first compound 0.03162 µM), 0.246. Besides, the relative viability with AZD8055 + Dasatinib (first compound 0.1 µM) came to 0.205; with AZD8055 + Dasatinib (first compound 0.3162 µM) it was 0.237; in the assay with AZD8055 + Dasatinib (first compound 1 µM), 0.171; with AZD8055 + Alpelisib (first compound 0.01 µM), 1.06; with AZD8055 + Alpelisib (first compound 0.03162 µM) it was 0.593; in the assay with AZD8055 + Alpelisib (first compound 0.1 µM), 0.391. For the same cell line, the relative viability was found to be 0.341 with AZD8055 + Alpelisib (first compound 0.3162 µM) and 0.338 with AZD8055 + Alpelisib (first compound 1 µM).

COR-L 105: the relative viability was found to be 0.426 with AZD8055 + Palbociclib (first compound 0.01 µM); 0.388 with AZD8055 + Palbociclib (first compound 0.03162 µM); 0.374 with AZD8055 + Palbociclib (first compound 0.1 µM); 0.403 in the assay with AZD8055 + Palbociclib (first compound 0.3162 µM); 0.381 with AZD8055 + Palbociclib (first compound 1 µM); 0.997 with AZD8055 + Bortezomib (first compound 0.01 µM). For the same cell line, the relative viability in the assay with AZD8055 + Bortezomib (first compound 0.03162 µM) amounted to 0.879; with AZD8055 + Bortezomib (first compound 0.1 µM), 0.565; in the assay with AZD8055 + Bortezomib (first compound 0.3162 µM), 0.309; with AZD8055 + Bortezomib (first compound 1 µM), 0.373; with AZD8055 + Dasatinib (first compound 0.01 µM) it was 0.359; with AZD8055 + Dasatinib (first compound 0.03162 µM) it was 0.281. The relative viability came to 0.23 with AZD8055 + Dasatinib (first compound 0.1 µM); 0.2 in the assay with AZD8055 + Dasatinib (first compound 0.3162 µM); 0.226 with AZD8055 + Dasatinib (first compound 1 µM); 0.975 with AZD8055 + Alpelisib (first compound 0.01 µM); 0.737 with AZD8055 + Alpelisib (first compound 0.03162 µM); 0.798 in the assay with AZD8055 + Alpelisib (first compound 0.1 µM). The relative viability in the assay with AZD8055 + Alpelisib (first compound 0.3162 µM) was found to be 0.271; with AZD8055 + Alpelisib (first compound 1 µM) it was 0.315.
